Patent publication US20110039770A1, “INHIBITORS OF PROTEIN KINASE C ISOFORMS AND USES THEREOF” (PHARMAGAP INC., priority 2005, published 2011)
Where a SMILES comes first, the peptide text is derived from it. [ ]: non-standard residue; d: D form.

What was measured:
PKC-ε [1] = test: Competition of PRE with PKC-ε antibody binding, Protocol B, IMR-32; set-up: species or system human
Protocol: Peptides PRE 2, PRE 3 and PRE 4 (see Table 4) were tested for their ability to interfere with the binding of isoform-specific polyclonal antibodies (Santa Cruz Biotechnology, Inc.) to […] using the general protocol described in Example 3. Two bands, representing alternate splicing variants of PKC-ε, were identified on the Western blot using this anti-PKC-ε antibody.

PKC-βI [2] = target: T1, PKC-βI (Homo sapiens, UniProt P05771); test: Competition of PRE with PKC-βI antibody binding, Protocol B, IMR-32; set-up: PKC-βII by PRE 3 and PRE 4 in IMR-32 Neuroblastoma; endogenous in cells; host or cells: IMR-32 human neuroblastoma cells; settings: for Band Intensity: Protocol B (control 170.5)
T1 sequence (P05771 whole entry): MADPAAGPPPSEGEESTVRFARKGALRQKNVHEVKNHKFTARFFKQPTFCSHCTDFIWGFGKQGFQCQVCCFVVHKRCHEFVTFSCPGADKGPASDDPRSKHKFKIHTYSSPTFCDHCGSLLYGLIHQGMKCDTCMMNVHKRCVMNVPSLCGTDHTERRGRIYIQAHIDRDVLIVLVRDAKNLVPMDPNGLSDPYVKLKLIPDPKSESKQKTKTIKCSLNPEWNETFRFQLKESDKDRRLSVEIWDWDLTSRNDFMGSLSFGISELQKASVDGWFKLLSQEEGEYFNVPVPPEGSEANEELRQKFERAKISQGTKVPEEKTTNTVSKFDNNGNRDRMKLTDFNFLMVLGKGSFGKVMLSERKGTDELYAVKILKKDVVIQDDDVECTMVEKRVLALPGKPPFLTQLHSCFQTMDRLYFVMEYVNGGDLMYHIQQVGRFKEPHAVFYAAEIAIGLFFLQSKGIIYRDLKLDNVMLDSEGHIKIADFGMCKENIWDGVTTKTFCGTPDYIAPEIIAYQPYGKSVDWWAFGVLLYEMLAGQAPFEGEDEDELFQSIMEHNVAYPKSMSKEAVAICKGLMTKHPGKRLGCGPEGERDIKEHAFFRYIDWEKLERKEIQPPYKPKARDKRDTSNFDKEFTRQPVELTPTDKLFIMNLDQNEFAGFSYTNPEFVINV
Protocol: The ability of the peptides PRE 2 and PRE 3 (see Table 4) to interfere with the binding of a PKC-α-specific polyclonal antibody (Santa Cruz Biotechnology, Inc.) to PKC-α was determined using a modified version of the protocol outlined above in which the test peptide was added directly to the cell extract prior to electrophoresis at a concentration of either 5× or 15× the concentration of the protein applied to each well of the gel for the Western blots (20 μg).
Peptides PRE 3 and PRE 4 (see Table 4) were tested for their ability to interfere with the binding of isoform-specific polyclonal antibodies (Santa Cruz Biotechnology, Inc.) to PKC-α, PKC-βI or PKC-βII using the general protocol described in Example 3.

PKC-βI [3] = target: T1, PKC-βI; test: Competitive binding assay using cell extracts (Western blot); set-up: PKC-βII by PRE 3 and PRE 4 in IMR-32 Neuroblastoma; endogenous in cells; host or cells: IMR-32 human neuroblastoma cells; key: —: no detectable affinity; Low to very low affinity at 10X or 20X or both PRE concentrations in at least one cell line in the cell extract assay; Low affinity in purified isoform assay.; Moderate affinity at 10X or 20X or both PRE concentrations in at least one cell line in the cell extract assay.; High affinity at 10X or 20X or both PRE concentrations in at least one cell line in the cell extract assay; High affinity in purified isoform assay; settings: Cell extract; PRE 10X or 20X antibody concentration
PKC-ε [4] = target: T2, PKC-ε (Homo sapiens, UniProt Q02156); test: as above; set-up: cytoplasmic extracts from different cell lines expressing appropriate PKC isoforms; endogenous in cells; host or cells: CCD16Lu, LnCAP, Du145, MDAMB231, LS180; key: —: no detectable affinity; Low to very low affinity at 10X or 20X or both PRE concentrations in at least one cell line in the cell extract assay; Low affinity in purified isoform assay.; Moderate affinity at 10X or 20X or both PRE concentrations in at least one cell line in the cell extract assay.; High affinity at 10X or 20X or both PRE concentrations in at least one cell line in the cell extract assay; High affinity in purified isoform assay; settings: Cell extract; PRE 10X or 20X antibody concentration
T2 sequence (Q02156 1-737): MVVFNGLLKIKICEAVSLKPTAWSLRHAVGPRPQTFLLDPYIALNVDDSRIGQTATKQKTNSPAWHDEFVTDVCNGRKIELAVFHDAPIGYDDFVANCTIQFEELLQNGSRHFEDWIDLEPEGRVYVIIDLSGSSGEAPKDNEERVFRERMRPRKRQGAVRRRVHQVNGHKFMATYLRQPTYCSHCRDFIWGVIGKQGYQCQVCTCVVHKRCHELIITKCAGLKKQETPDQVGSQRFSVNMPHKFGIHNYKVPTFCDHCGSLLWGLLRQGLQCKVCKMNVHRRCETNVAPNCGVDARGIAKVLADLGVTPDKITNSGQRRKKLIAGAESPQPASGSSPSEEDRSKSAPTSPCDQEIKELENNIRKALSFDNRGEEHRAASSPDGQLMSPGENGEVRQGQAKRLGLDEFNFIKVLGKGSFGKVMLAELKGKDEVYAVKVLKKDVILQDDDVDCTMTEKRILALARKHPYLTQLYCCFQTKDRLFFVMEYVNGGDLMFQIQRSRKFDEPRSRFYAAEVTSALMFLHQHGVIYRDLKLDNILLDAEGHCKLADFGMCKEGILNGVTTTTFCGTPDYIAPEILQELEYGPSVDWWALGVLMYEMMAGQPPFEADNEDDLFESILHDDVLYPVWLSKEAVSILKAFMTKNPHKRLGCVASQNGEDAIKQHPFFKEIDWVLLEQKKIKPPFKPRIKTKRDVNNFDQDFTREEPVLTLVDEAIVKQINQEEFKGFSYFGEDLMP
Protocol: Binding efficiency and specificity of the peptides PRE 2, 3, 4, 5, 6, 7, 8, 9, 10, 11, 12 and 13 (see Table 4) was also tested using cytoplasmic extracts from different cell lines expressing appropriate PKC isoforms as described for Example 1. Briefly, the protein cytoplasmic extracts were separated by electrophoresis and transferred onto nitrocellulose membranes by standard Western blotting procedures. The bands on the Western blots were detected with matching primary antibodies and alkaline phosphatase conjugated secondary antibody. The bands were then scanned and the relative density measurements obtained.
This procedure to assess the binding characteristics of the PREs is based on competition binding of the PRE with the primary anti-isoform PKC specific antibodies. The lower the measured band density, the greater the binding of the PRE to the PKC isoform. The PREs were added at 10 and 20 times (10×, 20×) the primary antibody concentration, according to classical competition between antigenic peptide and primary antibody. The following cell lines (obtained from the ATCC) were used: H661—NCI human lung carcinoma NSCLC; MDAMB231—human highly invasive breast cancer cell line from pleural effusion; LS180—human colon adenocarcinoma; LnCAP—human prostate adenocarcinoma; CCD16Lu—human lung fibroblasts; Du145—human prostate carcinoma brain metastasis, and T24—human bladder carcinoma.
In these cases, the 20× band density figures relative to control and 10× values were reliable.

CC[C@H](C)[C@H](NC(=O)[C@H](CO)NC(=O)[C@@H](NC(=O)CNC(=O)[C@@H](NC(=O)[C@H](CC(C)C)NC(=O)[C@H](CC(N)=O)NC(=O)[C@H](CCC(N)=O)NC(=O)[C@H](C)NC(=O)[C@H](CC(=O)O)NC(=O)[C@H](CCCCN)NC(C)=O)[C@@H](C)CC)[C@@H](C)CC)C(N)=O [PRE 4, Ac-KDAQNLIGISI-NH2] (Ac-KDAQNLIGISI-NH2)
Inhibition (%) (PKC-ε [1]; 20 μg, PKC-ε Band 1): 42.9%
Relative Intensity (%) (PKC-ε [1]; 20 μg, PKC-ε Band 1): 57.1%
Inhibition (%) (PKC-ε [1]; 20 μg, PKC-ε Band 2): 46.6%
Relative Intensity (%) (PKC-ε [1]; 20 μg, PKC-ε Band 2): 53.33%
Inhibition (%) (PKC-ε [1]; 50 μg, PKC-ε Band 1): 100.0%
Relative Intensity (%) (PKC-ε [1]; 50 μg, PKC-ε Band 1): 0.0%
Inhibition (%) (PKC-ε [1]; 50 μg, PKC-ε Band 2): 100.0%
Relative Intensity (%) (PKC-ε [1]; 50 μg, PKC-ε Band 2): 0.0%
Inhibition (%) (PKC-ε [1]; 100 μg, PKC-ε Band 1): 100.0%
Relative Intensity (%) (PKC-ε [1]; 100 μg, PKC-ε Band 1): 0.0%
Inhibition (%) (PKC-ε [1]; 100 μg, PKC-ε Band 2): 100.0%
Relative Intensity (%) (PKC-ε [1]; 100 μg, PKC-ε Band 2): 0.0%
Band Intensity (PKC-βI [2]; 100 μg): 112.5
Band Intensity (PKC-βI [2]; 200 μg): 0.0
Band Intensity (PKC-βI [2]; 300 μg): 0.0
Affinity for PKC isoform βI (PKC-βI [3]): H
Affinity for PKC isoform ε (PKC-ε [4]): H/L

CC[C@H](C)[C@H](NC(=O)[C@H](CO)NC(=O)[C@@H](NC(=O)CNC(=O)[C@@H](NC(=O)[C@H](CC(C)C)NC(=O)[C@H](CC(N)=O)NC(=O)[C@H](CCC(N)=O)NC(=O)[C@H](C)NC(=O)[C@H](CC(=O)O)NC(=O)[C@H](CCCCN)NC(=O)CNC(=O)CNC(=O)[C@H](CCCCN)NC(=O)[C@@H](NC(=O)[C@H](CCC(=O)O)NC(=O)[C@H](CCC(N)=O)NC(=O)[C@@H](NC(=O)CNC(=O)[C@H](CCCCN)NC(=O)[C@H](C)NC(C)=O)[C@@H](C)CC)C(C)C)[C@@H](C)CC)[C@@H](C)CC)C(N)=O [PRE 5] (Ac-AKGIQEVKGGKDAQNLIGISI-NH2)
Affinity for PKC isoform βI (PKC-βI [3]): H
Affinity for PKC isoform ε (PKC-ε [4]): L

Ac-RDAQNLIGISI-NH2 [PRE 11]
Affinity for PKC isoform βI (PKC-βI [3]): H
Affinity for PKC isoform ε (PKC-ε [4]): —

Ac-ISIGILNQADK-NH2 [PRE 10]
Affinity for PKC isoform βI (PKC-βI [3]): M
Affinity for PKC isoform ε (PKC-ε [4]): M/L

CC[C@H](C)[C@H](NC(=O)[C@H](CO)NC(=O)[C@@H](NC(=O)CNC(=O)[C@@H](NC(=O)[C@H](CC(C)C)NC(=O)[C@H](CC(N)=O)NC(=O)[C@H](CCC(N)=O)NC(=O)[C@H](C)NC(=O)[C@H](CC(=O)O)NC(=O)CNC(=O)CNC(=O)[C@H](CCCCN)NC(=O)[C@@H](NC(=O)[C@H](CCC(=O)O)NC(=O)[C@H](CCC(N)=O)NC(=O)[C@@H](NC(=O)CNC(=O)[C@H](CCCCN)NC(=O)[C@H](C)NC(C)=O)[C@@H](C)CC)C(C)C)[C@@H](C)CC)[C@@H](C)CC)C(N)=O [PRE 3] (Ac-AKGIQEVKGGDAQNLIGISI-NH2)
Inhibition (%) (PKC-ε [1]; 20 μg, PKC-ε Band 1): 99.0%
Relative Intensity (%) (PKC-ε [1]; 20 μg, PKC-ε Band 1): 0.12%
Inhibition (%) (PKC-ε [1]; 20 μg, PKC-ε Band 2): 100.0%
Relative Intensity (%) (PKC-ε [1]; 20 μg, PKC-ε Band 2): 0.0%
Inhibition (%) (PKC-ε [1]; 50 μg, PKC-ε Band 1): 100.0%
Relative Intensity (%) (PKC-ε [1]; 50 μg, PKC-ε Band 1): 0.0%
Inhibition (%) (PKC-ε [1]; 50 μg, PKC-ε Band 2): 100.0%
Relative Intensity (%) (PKC-ε [1]; 50 μg, PKC-ε Band 2): 0.0%
Inhibition (%) (PKC-ε [1]; 100 μg, PKC-ε Band 1): 100.0%
Relative Intensity (%) (PKC-ε [1]; 100 μg, PKC-ε Band 1): 0.0%
Inhibition (%) (PKC-ε [1]; 100 μg, PKC-ε Band 2): 100.0%
Relative Intensity (%) (PKC-ε [1]; 100 μg, PKC-ε Band 2): 0.0%
Band Intensity (PKC-βI [2]; 100 μg): 0.0
Relative Intensity (%) (PKC-βI [2]; 200 μg, Protocol B): 0.0%
Band Intensity (PKC-βI [2]; 200 μg): 0.0
Band Intensity (PKC-βI [2]; 300 μg): 0.0
Affinity for PKC isoform βI (PKC-βI [3]): L
Affinity for PKC isoform ε (PKC-ε [4]): L

Ac-KDAQNLI-NH2 [PRE 12]
Affinity for PKC isoform βI (PKC-βI [3]): —
Affinity for PKC isoform ε (PKC-ε [4]): —

RRKKGGKDFVVKR [PRE 1]
Affinity for PKC isoform βI (PKC-βI [3]): H

Ac-ISIGILQNADK-NH2 (not fully specified; printed as Ac-ISIGILQNADK-NH2) [PRE 7]
Affinity for PKC isoform βI (PKC-βI [3]): —
Affinity for PKC isoform ε (PKC-ε [4]): —

Ac-isigilqnadk-NH2 (Ac-[dI][dS][dI]G[dI][dL][dQ][dN][dA][dD][dK]-NH2; SMILES CC[C@@H](C)[C@@H](NC(C)=O)C(=O)N[C@H](CO)C(=O)N[C@@H](C(=O)NCC(=O)N[C@@H](C(=O)N[C@H](CC(C)C)C(=O)N[C@H](CCC(N)=O)C(=O)N[C@H](CC(N)=O)C(=O)N[C@H](C)C(=O)N[C@H](CC(=O)O)C(=O)N[C@H](CCCCN)C(N)=O)[C@H](C)CC)[C@H](C)CC) [PRE 9]
Affinity for PKC isoform βI (PKC-βI [3]): M
Affinity for PKC isoform ε (PKC-ε [4]): M/L

Ac-RDAQNLI-NH2 [PRE 13]
Affinity for PKC isoform βI (PKC-βI [3]): —
Affinity for PKC isoform ε (PKC-ε [4]): —

ILEDKGGDAQNLIGISI [PRE 8]
Affinity for PKC isoform ε (PKC-ε [4]): L

Ac-KDANQLIGISI-NH2 [PRE 6]
Affinity for PKC isoform βI (PKC-βI [3]): H
Affinity for PKC isoform ε (PKC-ε [4]): M
